Measured values from patent publication US7488736B2, “Thienopyridinone compounds and methods of treatment” (Epix Delaware, Inc., priority 2004, dated 2009).
Where a name gives a salt, the structure may show the parent alone.

Legend:
[1] = molecular target: h 5-HT4e Receptor (Homo sapiens, UniProt Q13639); experiment: h 5-HT4e receptor binding affinity assay
[2] = system: rats; experiment: Reversal of the scopolamine-induced deficit of Morris water maze performance; format: in vivo, rat
Excerpt: Reversal of the Scopolamine-Induced Deficit of Water Maze Performance in Rats
The Morris Water Maze test is commonly used to study hippocampal-dependent spatial memory acquisition. It consists of a water pool with a hidden escape platform where the rats must learn the location of the platform using either contextual or local cues. […] Lesions of the hippocampus or its cholinergic input impair performance (e.g., by scopolamine) by inducing a performance deficit (latency or time to reach the platform location) in this test without affecting the speed of swimming or other general behaviors in the test animals.

[3] = system: rats; experiment: Spontaneous alternation task (cross maze), spatial working memory; format: in vivo, rat; parameters: number of arm entries: unit not given here; settings: 5 mg/kg i.p., 12 minutes on cross maze
Excerpt: Effect of Compound 23 on Spatial Working Memory in the Spontaneous Alternation Task Performance in Rats
Rats have an innate tendency to explore their environment in a systematic way. That is, if a rat chose a certain arm on the first trial in a maze, there is high probability that it will choose a different arm on the second trial. […] The performance in the spontaneous alternation test is highly dependent on spatial working memory capacity and rats with compromised “working memory” cannot retain information regarding places just visited in memory; therefore they show decreased spontaneous alternation. In this study, rats were tested for spontaneous alternation performance on the cross maze. Rats were allowed to explore the maze freely for 12 minutes. An alternation was recorded if a rat entered all four arms within a series of four consecutive entries. Chance performance is 22.5% with this measure.

[4] = scopolamine 1 mg/kg i.p., compound at both 15 mg/kg and 30 mg/kg p.o.

Sequence of h 5-HT4e Receptor (Q13639 1-378 isoform Q13639-5): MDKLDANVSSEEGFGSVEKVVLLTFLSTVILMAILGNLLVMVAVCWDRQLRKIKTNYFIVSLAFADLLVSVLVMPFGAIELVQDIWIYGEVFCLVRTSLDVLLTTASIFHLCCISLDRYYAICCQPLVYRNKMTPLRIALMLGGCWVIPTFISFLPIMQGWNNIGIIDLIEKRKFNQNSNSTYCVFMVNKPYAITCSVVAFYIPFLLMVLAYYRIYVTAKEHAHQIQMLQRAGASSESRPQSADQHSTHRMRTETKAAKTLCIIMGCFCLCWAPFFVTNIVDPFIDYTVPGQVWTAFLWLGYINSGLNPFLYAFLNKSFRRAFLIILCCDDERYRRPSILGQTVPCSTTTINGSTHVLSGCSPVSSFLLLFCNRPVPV

Compound	Ki [1]	further results
CCC1CCN(CCCNC(=O)c2c(O)c3ccsc3n(CC)c2=O)CC1 [Compound 5, 6,7-Dihydro-7-ethyl-N-(3-(4-ethylpiperidin-1-yl)propyl)-4-hydroxy-6-oxothieno[2,3-b]pyridine-5-carboxamide hydrochloride salt]	26 nM	–
CC1CCN(CCCNC(=O)c2c(O)c3ccsc3n(C(C)C)c2=O)CC1 [Compound 8, 6,7-Dihydro-4-hydroxy-7-isopropyl-N-(3-(4-methylpiperidin-1-yl)propyl)-6-oxothieno[2,3-b]pyridine-5-carboxamide hydrochloride salt]	65 nM	–
COC(=O)C1CCN(CCCNC(=O)c2c(O)c3ccsc3n(C(C)C)c2=O)CC1 [Compound 10, 6,7-Dihydro-4-hydroxy-7-isopropyl-6-oxo-N-(3-(4-(methoxycarbonyl)piperidin-1-yl)propyl)thieno[2,3-b]pyridine-5-carboxamide hydrochloride salt]	40 nM	–
CC(C)n1c(=O)c(C(=O)NCCCN2[C@H](C)CCC[C@@H]2C)c(O)c2ccsc21 [Compound 13, 6,7-Dihydro-N-(3-((2R,6S)-2,6-dimethylpiperidin-1-yl)propyl)-4-hydroxy-7-isopropyl-6-oxothieno[2,3-b]pyridine-5-carboxamide hydrochloride salt]	380 nM	–
Cc1sc2c(c1C)c(O)c(C(=O)NCCCN1CCCCC1)c(=O)n2C(C)C [Compound 14, 6,7-Dihydro-2,3-dimethyl-4-hydroxy-7-isopropyl-6-oxo-N-(3-(piperidin-1-yl)propyl)thieno-[2,3-b]pyridine-5-carboxamide hydrochloride salt]	140 nM	–
CC(C)n1c(=O)c(C(=O)NCCCN2CCCCC2)c([O-])c2ccsc21.[K+] [Compound 23, 6,7-Dihydro-4-hydroxy-7-isopropyl-6-oxo-N-(3-(piperidin-1-yl)propyl)thieno[2,3-b]pyridine-5-carboxamide potassium salt]	–	decrease in path length to reach the platform [2, 4]: 35-55%; decrease in time to reach the platform [2, 4]: 25-30%; number of arm entries [3]: 30; mean alternation score ([3]; chance performance 22.5%): 58%±3%
CN1[C@@H]2C[C@@H](OC(=O)[C@H](CO)c3ccccc3)C[C@H]1[C@@H]1O[C@@H]12 [scopolamine, reference compound]	–	increase in latency and path length to find the platform compared with vehicle treated rats ([2]; scopolamine pretreatment 1 mg/kg i.p.): ~5 fold

Second part, led by results:

Ki [1]	Compound	further results
120 nM	CC(C)Cn1c(=O)c(C(=O)NCCCN2CCCCC2)c(O)c2ccsc21 [Compound 1, 6,7-Dihydro-4-hydroxy-7-isobutyl-6-oxo-N-(3-(piperidin-1-yl)propyl)thieno[2,3-b]pyridine-5-carboxamide hydrochloride salt]	–
160 nM	CCCn1c(=O)c(C(=O)NCCCN2CCC(C)CC2)c(O)c2ccsc21 [Compound 2, 6,7-Dihydro-4-hydroxy-N-(3-(4-methylpiperidin-1-yl)propyl)-6-oxo-7-propylthieno[2,3-b]pyridine-5-carboxamide hydrochloride salt]	–
36 nM	CCn1c(=O)c(C(=O)NCCCN2CCCCC2)c(O)c2ccsc21 [Compound 3, 6,7-Dihydro-7-ethyl-4-hydroxy-6-oxo-N-(3-(piperidin-1-yl)propyl)thieno[2,3-b]pyridine-5-carboxamide hydrochloride salt]	–
20 nM	CCn1c(=O)c(C(=O)NCCCN2CCC(C)CC2)c(O)c2ccsc21 [Compound 4, 6,7-Dihydro-7-ethyl-4-hydroxy-N-(3-(4-methylpiperidin-1-yl)propyl)-6-oxothieno[2,3-b]pyridine-5-carboxamide hydrochloride salt]	–
35 nM	CC(C)n1c(=O)c(C(=O)NCCCN2CCCC2)c(O)c2ccsc21 [Compound 6, 6,7-Dihydro-4-hydroxy-7-isopropyl-6-oxo-N-(3-(pyrrolidin-1-yl)propyl)thieno-[2,3-b]pyridine-5-carboxamide hydrochloride salt]	–
50 nM	CC(C)n1c(=O)c(C(=O)NCCCN2CCC(C(F)(F)F)CC2)c(O)c2ccsc21 [Compound 9, 6,7-Dihydro-4-hydroxy-7-isopropyl-6-oxo-N-(3-(4-(trifluoromethyl)piperidin-1-yl)propyl)thieno[2,3-b]pyridine-5-carboxamide hydrochloride salt]	–
220 nM	CC(C)n1c(=O)c(C(=O)NCCCN2CCC(F)(F)CC2)c(O)c2ccsc21 [Compound 11, N-(3-(4,4-Difluoropiperidin-1-yl)propyl)-6,7-dihydro-4-hydroxy-7-isopropyl-6-oxothieno[2,3-b]pyridine-5-carboxamide hydrochloride salt]	–
200 nM	CC(C)n1c(=O)c(C(=O)NCCCN2CCC(C)(C)CC2)c(O)c2ccsc21 [Compound 12, 6,7-Dihydro-N-(3-(4,4-dimethylpiperidin-1-yl)propyl)-4-hydroxy-7-isopropyl-6-oxothieno[2,3-b]pyridine-5-carboxamide hydrochloride salt]	–
31 nM	COc1c(C(=O)NCCCN2CCCCC2)c(=O)n(C(C)C)c2sccc12 [Compound 16, 6,7-Dihydro-7-isopropyl-4-methoxy-6-oxo-N-(3-(piperidin-1-yl)propyl)thieno[2,3-b]pyridine-5-carboxamide]	–
